In patent US20230148599A1, “FUNGICIDAL MIXTURES CONTAINING PYRAZOLE DERIVATIVES” (FMC Corporation, priority 2020, published 2023):

How the values were obtained:
Format in all cases: in vivo
Settings in all cases: 50 ppm, 100 = 100% disease control, 0 = no control
[1] = test system: Septoria tritici; experiment: Test A: wheat leaf blotch, preventive spray on wheat seedlings
Outline: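 Wheat seedlings sprayed to run-off with compound suspended in acetone/water with 250 ppm PEG400 surfactant, inoculated next day with Septoria tritici spores. Held 48 h saturated at 24 °C, then 17 days at 20 °C; disease rated 0–100% control relative to controls.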

[2] = test system: Puccinia recondita f. sp. tritici; experiment: Test B: wheat leaf rust, preventive spray on wheat seedlings
Outline: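 Wheat seedlings were sprayed to run-off with compound suspended at ppm concentrations in acetone/water containing 250 ppm PEG400. The next day they were inoculated with Puccinia recondita f. sp. tritici spores, held saturated at 20 °C for 24 h, then kept 7 days at 20 °C. Disease control was rated 0–100% relative to untreated controls.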

[3] = test system: Phakopsora pachyrhizi; experiment: Test D: Asian soybean rust, preventive spray on soybean seedlings
Outline: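 Compounds in acetone/water (50/50) with 250 ppm PEG400, dosed in ppm, sprayed to run-off on soybean seedlings; inoculated with P. pachyrhizi spores next day. Held 24 h at 22 °C in saturated air, then 8 days at 22 °C; visual rating of disease control, 0–100, relative to untreated controls.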

[4] = test system: Botrytis cinerea; experiment: Test E: tomato Botrytis, preventive spray on tomato seedlings
Outline: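 Compound suspended in 50/50 acetone/water with 250 ppm PEG400 surfactant and sprayed to run-off on tomato seedlings; Botrytis cinerea spores applied the next day. Incubation 48 h at 20° C in saturated atmosphere, then 3 days at 24° C. Visual rating 0–100% disease control relative to controls.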

[5] = test system: Alternaria solani; experiment: Test F: tomato early blight, preventive spray on tomato seedlings
Outline: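 Tomato seedlings were sprayed to run-off with compound suspended in acetone/water (50/50) with 250 ppm PEG400 and inoculated with Alternaria solani spores the next day. Plants were held 48 h at 27 °C in saturated humidity, then 3 days at 20 °C. Disease control was rated visually from 0 to 100 against untreated controls.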

[6] = test system: Blumeria graminis f. sp. tritici; experiment: Test C: wheat powdery mildew, preventive spray on wheat seedlings
Outline: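 Seedlings were sprayed to run-off with compound suspended (ppm) in 50/50 acetone–water containing 250 ppm PEG400, then spore-dust inoculated the following day. After 8 days at 20° C, disease control was rated visually from 0 to 100 against controls.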

Compound	Test A disease control rating [1] [%]	Test B disease control rating [2] [%]	Test D disease control rating [3] [%]	Test E disease control rating [4] [%]	Test F disease control rating [5] [%]	Test C disease control rating [6] [%]
Cc1nn(C)c(Nc2c(Cl)cc(Cl)cc2[N+](=O)[O-])c1-c1ccc(F)cc1F [compound 101]	100	99	44	99	0	89
Cc1nn(C)c(Nc2c(F)cc(Cl)cc2[N+](=O)[O-])c1-c1ccc(F)cc1F [compound 102]	100	100	48	99	99	100
CCOc1ccc(Nc2c(-c3ccc(F)cc3Cl)c(C)nn2C)c([N+](=O)[O-])c1 [compound 103]	97	80	0	83	0	50
Cc1nn(C)c(Nc2ccc(OC(C)C)cc2[N+](=O)[O-])c1-c1ccc(F)cc1Cl [compound 104]	60	0	0	0	0	72
Cc1ccc(Nc2c(-c3c(F)cccc3F)c(C)nn2C)c([N+](=O)[O-])c1 [compound 105]	99	74	0	73	0	86
Cc1nn(C)c(Nc2c(Cl)cccc2[N+](=O)[O-])c1-c1ccc(F)cc1Cl [compound 108]	100	100	86	100	77	97
Cc1nn(C)c(Nc2c(F)cc(F)cc2[N+](=O)[O-])c1-c1ccc(F)cc1Cl [compound 109]	100	100	93	100	99	100
Cc1nn(C)c(Nc2c(Br)cccc2[N+](=O)[O-])c1-c1ccc(F)cc1Cl [compound 110]	100	98	73	99	0	56
Cc1nn(C)c(Nc2c(F)cccc2[N+](=O)[O-])c1-c1c(F)cc(C#N)cc1F [compound 114]	100	98	73	100	99	99
Cc1nn(C)c(Nc2c(F)cc(Cl)cc2[N+](=O)[O-])c1-c1ccc(C#N)cc1Cl [compound 115]	100	100	77	99	99	94
Cc1nn(C)c(Nc2c(Cl)cc(Cl)cc2[N+](=O)[O-])c1-c1ccc(C#N)cc1Cl [compound 116]	99	99	0	63	82	56
Cc1cccc([N+](=O)[O-])c1Nc1c(-c2ccc(F)cc2Cl)c(C)nn1C [compound 117]	99	100	0	99	76	95
COc1ccc(Nc2c(-c3ccc(F)cc3Cl)c(C)nn2C)c([N+](=O)[O-])c1 [compound 119]	100	100	92	100	99	99
